Values joined by “and” are separate entries in the source; they are usually repeats but may differ in a detail not shown here. Identical values can stand only once. Like-named read-outs stand apart in the source and are kept apart here.
Experiments:
5-HT1A = 5-HT1A (Homo sapiens, UniProt P08908); assay: BRET signaling assay: 5-HT1A-mediated activation of heterotrimeric Gi1 (TRUPATH, HEK293-T)
5-HT2A = 5-HT2A (Homo sapiens, UniProt P28223); assay: cell-based
human 5-HT1A [1] = target: T1, human 5-HT1A (Homo sapiens, UniProt P08908); assay: cell-based
T1 sequence (P08908 1-422): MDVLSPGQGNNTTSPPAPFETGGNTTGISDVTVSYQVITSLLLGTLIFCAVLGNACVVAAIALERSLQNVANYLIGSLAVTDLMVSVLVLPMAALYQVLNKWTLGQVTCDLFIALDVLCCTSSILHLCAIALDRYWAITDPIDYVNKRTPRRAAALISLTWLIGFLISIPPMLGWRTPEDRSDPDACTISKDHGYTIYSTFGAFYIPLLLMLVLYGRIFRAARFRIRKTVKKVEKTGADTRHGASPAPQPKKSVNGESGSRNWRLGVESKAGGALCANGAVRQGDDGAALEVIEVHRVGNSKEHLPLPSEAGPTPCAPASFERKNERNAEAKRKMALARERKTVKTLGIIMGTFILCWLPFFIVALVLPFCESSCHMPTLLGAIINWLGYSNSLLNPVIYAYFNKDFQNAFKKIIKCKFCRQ

human 5-HT1A [2] = target: T1, human 5-HT1A; assay: 5-HT1A-mediated cAMP reduction assay (GloSensor, HEK293-T)
[3] = EC50 (nM) Mean Gio(cAMP)-1A, Table 2
[4] = Activity (5-HT1A cAMP) EC50 (nM), Table 5

Chain of 5-HT2A (P28223 whole entry): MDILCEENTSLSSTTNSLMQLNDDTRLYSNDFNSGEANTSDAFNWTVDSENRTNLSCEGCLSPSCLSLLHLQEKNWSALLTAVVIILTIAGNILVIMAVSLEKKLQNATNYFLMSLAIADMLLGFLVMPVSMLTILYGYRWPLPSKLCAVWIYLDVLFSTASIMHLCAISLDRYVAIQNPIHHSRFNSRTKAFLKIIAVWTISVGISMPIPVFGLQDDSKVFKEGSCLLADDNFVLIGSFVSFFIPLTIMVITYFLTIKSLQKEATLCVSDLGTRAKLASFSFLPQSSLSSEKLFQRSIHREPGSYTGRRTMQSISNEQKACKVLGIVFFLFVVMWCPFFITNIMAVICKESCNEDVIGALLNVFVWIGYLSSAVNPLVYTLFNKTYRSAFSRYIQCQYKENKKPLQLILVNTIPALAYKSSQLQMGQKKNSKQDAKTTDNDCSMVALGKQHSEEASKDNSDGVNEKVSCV

SMILES | EC50 (human 5-HT1A [1]) | also measured
O=C1CCc2ccc(OCCCCN3CCN(c4cccc(Cl)c4Cl)CC3)cc2N1 [Aripiprazole, aripiprazole, reference compound] | – | Emax (5-HT1A; HEK-293T, read-out: Emax, 5-HT1A-mediated activation of Gi1 (BRET)): 77.1%; Efficacy as %5HT 5-HT1A BRET Gi1 (5-HT1A; Table 6, commercial ligands): 77.1 %5HT
CN(C)CCc1c[nH]c2ccc(O)cc12 [Bufotenine (5-OH-DMT), Bufotenine, reference compound] | – | EC50 (5-HT1A; EC50 (nM), Gi1 BRET, 5-HT1A WT): 9.29 nM
CN(C)CCc1c[nH]c2ccccc12 [Compound 1] | – | EC50 (5-HT2A): 94.4 nM and 93.3 nM
CCN(C)CCc1c[nH]c2ccccc12 [Compound 2] | 302 nM | –
CC(C)N(C)CCc1c[nH]c2ccccc12 [Compound 3] | 1980 nM | –
CC(C)N(CCc1c[nH]c2ccccc12)C(C)C [Compound 4] | 1330 nM | –
COc1ccc2[nH]cc(CCN3CCCCC3)c2c1 [Compound 5-MeO-PipT, 5-methoxypiperidinyl-tryptamine] | – | EC50 (5-HT1A; read-out: Gi BRET EC50): 88.5 nM; loss of potency at 5-HT1A (5-HT1A; relative to 5-MeO-PyrT): ~42 fold
c1ccc2c(CCN3CCCC3)c[nH]c2c1 [Compound 5] | 19.1 nM | –
c1ccc2c(CCN3CCCCC3)c[nH]c2c1 [Compound 6] | 485 nM | –
C1=CC2CCC1CN2CCc1c[nH]c2ccccc12 (centres unmarked) [Compound 7] | 15500 nM | –
CCN(CC)CCc1c[nH]c2ccc(OC)cc12 [Compound 11, 5-MeO-DET] | – | EC50 (5-HT1A; Gi BRET EC50): 37.1 nM
COc1ccc2[nH]cc(CCN3C[C@H]4C=C[C@@H]3CC4)c2c1F [Compound 14] | – | EC50 (human 5-HT1A [2]; [3]): 173 nM
CC[C@H]1C[C@@H]2C=C[C@H]1N(CCc1c[nH]c3ccc(OC)c(F)c13)C2 [Compound 15] | – | EC50 (human 5-HT1A [2]; [3]): 47.3 nM; EC50 (human 5-HT1A [2]; pEC50 Gio(cAMP)-1A, Table 2): 46.8 nM
C=CCN(CC=C)CCc1c[nH]c2ccc(OC)cc12 [Compound 17] | 4.66 nM | –
CCN(CC)CCc1c[nH]c2ccc(O)c(F)c12 [Compound 17] | – | EC50 (human 5-HT1A [2]; [3]): 0.76 nM
Oc1ccc2[nH]cc(CCN3CCCC3)c2c1F [Compound 18] | – | EC50 (human 5-HT1A [2]; [3]): 0.04 nM; EC50 (human 5-HT1A [2]; pEC50 Gio(cAMP)-1A, Table 2): 0.0417 nM
COc1ccc2[nH]cc(CCN3CCCC3C)c2c1 (centres unmarked) [Compound 19] | 2.4 nM | –
COc1ccc2c(c(CCN3CCCC3)cn2C)c1F [Compound 19] | – | EC50 (human 5-HT1A [2]; [3]): 100 nM
COc1ccc2[nH]cc(CCn3ccnc3)c2c1 [Compound 22, 3-(2-(1H-imidazol-1-yl)ethyl)-5-methoxy-1H-indole] | 292 nM | –

SMILES | EC50 (human 5-HT1A [1]) | also measured
COc1ccc2[nH]cc(CCN3CC=CCC3)c2c1 [Compound 23, 3-(2-(3,6-dihydropyridin-1(2H)-yl)ethyl)-5-methoxy-1H-indole] | 8.77 nM | –
COc1ccc2[nH]cc(CCN3C[C@H]4C=C[C@@H]3CC4)c2c1 [Compound 24] | 628 nM | –
COc1ccc2[nH]cc(CCN3CC=CC3)c2c1F [Compound 37, 3-(2-(2,5-dihydro-1H-pyrrol-1-yl)ethyl)-4-fluoro-5-methoxy-1H-indole] | 0.00229 nM | EC50 (5-HT2A): 120 nM; EC50 (5-HT1A; Gi BRET EC50): 0.22 nM
COc1ccc2[nH]cc(CCN3C[C@H]4C=C[C@@H]3CC4)c2c1F [Compound 38, (1S,4R)-2-(2-(4-fluoro-5-methoxy-1H-indol-3-yl)ethyl)-2-azabicyclo[2.2.2]oct-5-ene] | 173 nM | –
CC[C@H]1C[C@@H]2C=C[C@H]1N(CCc1c[nH]c3ccc(OC)c(F)c13)C2 [Compound 39, (1S,4R,7S)-7-ethyl-2-(2-(4-fluoro-5-methoxy-1H-indol-3-yl)ethyl)-2-aza bicyclo[2.2.2]oct-5-ene] | 47.3 nM and 46.8 nM | –
Oc1ccc2[nH]cc(CCN3CCCC3)c2c1F [Compound 42, 4-fluoro-3-(2-(pyrrolidin-1-yl)ethyl)-1H-indol-5-ol] | 0.04 nM and 0.0417 nM | –
COc1ccc2c(c1)c(CCN1CCCC1)cn2C [Compound 43, 5-methoxy-1-methyl-3-(2-(pyrrolidin-1-yl)ethyl)-1H-indole] | 89.1 nM | –
COc1ccc2c(c1)c(CCN1CC=CC1)cn2C [Compound 44, 3-(2-(2,5-dihydro-1H-pyrrol-1-yl)ethyl)-5-methoxy-1-methyl-1H-indole] | 209 nM | –
COc1ccc2c(c1)c(CCn1cccc1)cn2C [Compound 45, 3-(2-(1H-pyrrol-1-yl)ethyl)-5-methoxy-1-methyl-1H-indole] | 6580 nM | –
COc1ccc2c(c(CCN3CCCC3)cn2C)c1F [Compound 46, 4-fluoro-5-methoxy-1-methyl-3-(2-(pyrrolidin-1-yl)ethyl)-1H-indole] | 100 nM | –
COc1ccc2c(c(CCN3CC=CC3)cn2C)c1F [Compound 47, 3-(2-(2,5-dihydro-1H-pyrrol-1-yl)ethyl)-4-fluoro-5-methoxy-1-methyl-1H-indole] | 2.74 nM | –
c1ccc(COc2ccc3[nH]cc(CCN4CCCC4)c3c2)cc1 [Compound 48, 5-(benzyloxy)-3-(2-(pyrrolidin-1-yl)ethyl)-1H-indole] | 33 nM | –
Oc1ccc2[nH]cc(CCN3CCCC3)c2c1 [Compound 50, 3-(2-(pyrrolidine-1-yl)ethyl)-1H-indol-5-ol] | 0.1 nM and 0.0977 nM | –
Oc1ccc2[nH]cc(CCN3C[C@H]4C=C[C@@H]3CC4)c2c1 [Compound 51, 3-(2-((1S,4R)-2-azabicyclo[2.2.2]oct-5-eN-2-yl)ethyl)-1H-indol-5-ol] | 149 nM | –
CCN(C)CCc1c[nH]c2cccc(O)c12 [Compound 53, 4-OH-MET] | 769 nM | –
COc1cccc2[nH]cc(CCN(C)C)c12 [Compound 54, 2-(4-methoxy-1H-indol-3-yl)-N,N-dimethylethan-1-amine] | 558 nM | –
COc1cccc2[nH]cc(CCN3CCCC3)c12 [Compound 55, 4-methoxy-3-(2-(pyrrolidin-1-yl)ethyl)-1H-indole] | 164 nM | –
CN(C)CCc1c[nH]c2cccc(F)c12 [Compound 57, 2-(4-fluoro-1H-indol-3-yl)-N,N-dimethylethan-1-amine] | 87.7 nM | –
Fc1cccc2[nH]cc(CCN3CCCC3)c12 [Compound 58, 4-fluoro-3-(2-(pyrrolidin-1-yl)ethyl)-1H-indole] | 16.7 nM | –

SMILES | EC50 (human 5-HT1A [1]) | also measured
COc1ccc2c(CCN(C)C)c[nH]c2c1 [Compound 60, 2-(6-methoxy-1H-indol-3-yl)-N,N-dimethylethan-1-amine] | 3240 nM | –
COc1ccc2c(CCN3CCCC3)c[nH]c2c1 [Compound 61, 6-methoxy-3-(2-(pyrrolidin-1-yl)ethyl)-1H-indole] | 492 nM | –
COc1ccc2c(CCN3CC=CC3)c[nH]c2c1 [Compound 62, 3-(2-(2,5-dihydro-1H-pyrrol-1-yl)ethyl)-6-methoxy-1H-indole] | 30.9 nM | –
CN(C)CCc1c[nH]c2cc3c(cc12)OCO3 [Compound 63, 2-(5H-[1,3]dioxolo[4,5-f]indol-7-yl)-N,N-dimethylethan-1-amine] | 64.4 nM and 64.6 nM | –
c1[nH]c2cc3c(cc2c1CCN1CCCC1)OCO3 [Compound 64, 7-(2-(pyrrolidin-1-yl)ethyl)-5H-[1,3]dioxolo[4,5-f]indole] | 3.5 nM | –
C1=CC2CCC1CN2CCc1c[nH]c2cc3c(cc12)OCO3 (centres unmarked) [Compound 65] | 9890 nM | –
CCC1C[C@@H]2C=C[C@H]1N(CCc1c[nH]c3cc4c(cc13)OCO4)C2 (stereo partly drawn) [Compound 66, 7-(2-((1S,4R)-7-ethyl-2-azabicyclo[2.2.2]oct-5-en-2-yl)ethyl)-5H-[1,3]dioxolo[4,5-f]indole] | 1690 nM | –
CCN(C)CCc1c[nH]c2ccc(SC)cc12 [Compound 68, N-ethyl-N-methyl-2-(5-(methylthio)-1H-indol-3-yl)ethan-1-amine] | 3.35 nM and 3.31 nM | –
Cc1cccc2c(CCN(C)C)c[nH]c12 [Compound 70, N,N-dimethyl-2-(7-methyl-1H-indol-3-yl)ethan-1-amine] | 1210 nM | –
CN(C)CCc1c[nH]c2ncccc12 [Compound 72, N,N-dimethyl-2-(1H-pyrrolo[2,3-b]pyridin-3-yl)ethan-1-amine] | – | EC50 (human 5-HT1A [2]; [4]): 1910 nM
CCN(CC)CCc1c[nH]c2ncccc12 [Compound 73, N,N-diethyl-2-(1H-pyrrolo[2,3-b]pyridin-3-yl)ethan-1-amine] | – | EC50 (human 5-HT1A [2]; [4]): 7800 nM
c1cnc2[nH]cc(CCN3CCCC3)c2c1 [Compound 74, 3-(2-(pyrrolidin-1-yl)ethyl)-1H-pyrrolo[2,3-b]pyridine] | – | EC50 (human 5-HT1A [2]; [4]): 3240 nM
c1cnc2[nH]cc(CCN3CCCCC3)c2c1 [Compound 75, 3-(2-(piperidin-1-yl)ethyl)-1H-pyrrolo[2,3-b]pyridine] | – | EC50 (human 5-HT1A [2]; [4]): 18500 nM
COc1ccc2occ(CCN(C)C)c2c1 [Compound 76, 2-(5-methoxybenzofuran-3-yl)-N,N-dimethylethan-1-amine] | – | EC50 (human 5-HT1A [2]; [4]): 178 nM
COc1ccc2occ(CCN3CCCC3)c2c1 [Compound 77, 1-(2-(5-methoxybenzofuran-3-yl)ethyl)pyrrolidine] | – | EC50 (human 5-HT1A [2]; [4]): 7.19 nM
COc1ccc2occ(CCN3CCCCC3)c2c1 [Compound 78, 1-(2-(5-methoxybenzofuran-3-yl)ethyl)piperidine] | – | EC50 (human 5-HT1A [2]; [4]): 416 nM
COc1ccc2occ(CCN3CC=CCC3)c2c1 [Compound 79, 1-(2-(5-methoxybenzofuran-3-yl)ethyl)-1,2,3,6-tetrahydropyridine] | – | EC50 (human 5-HT1A [2]; [4]): 7130 nM
CC1(C)CC(=O)N(CCCCN2CCN(c3ncccn3)CC2)C(=O)C1 [Gepiron, Gepirone, reference compound] | – | Efficacy as %5HT 5-HT1A cAMP (human 5-HT1A [2]; Table 6, commercial ligands): 95.4 %5HT
